Experimental data taken from publication PMC9329436, “Optimization of the 4-anilinoquin(az)oline scaffold as epidermal growth factor receptor (EGFR) inhibitors for chordoma utilizing a toxicology profiling assay platform” (Scientific Reports, 2022).
Read-outs that look alike come from different tables or passages of the source.

Tests used:
Assay type in all cases: biochemical
[1] = target: 320 wild-type protein kinases (Homo sapiens, UniProt Q9NYY3); conditions: kinase SNK, singlicate
Source text: (§1) Table S4. Profiling of two compounds at two concentrations against 320 wild-type protein kinases; singlicate measurement; Residual activities (% of control).

[2] = target: 320 wild-type protein kinases (Homo sapiens, UniProt Q05397); conditions: singlicate
320 wild-type protein kinases (Homo sapiens, UniProt Q05397), sequence (Q05397 whole entry): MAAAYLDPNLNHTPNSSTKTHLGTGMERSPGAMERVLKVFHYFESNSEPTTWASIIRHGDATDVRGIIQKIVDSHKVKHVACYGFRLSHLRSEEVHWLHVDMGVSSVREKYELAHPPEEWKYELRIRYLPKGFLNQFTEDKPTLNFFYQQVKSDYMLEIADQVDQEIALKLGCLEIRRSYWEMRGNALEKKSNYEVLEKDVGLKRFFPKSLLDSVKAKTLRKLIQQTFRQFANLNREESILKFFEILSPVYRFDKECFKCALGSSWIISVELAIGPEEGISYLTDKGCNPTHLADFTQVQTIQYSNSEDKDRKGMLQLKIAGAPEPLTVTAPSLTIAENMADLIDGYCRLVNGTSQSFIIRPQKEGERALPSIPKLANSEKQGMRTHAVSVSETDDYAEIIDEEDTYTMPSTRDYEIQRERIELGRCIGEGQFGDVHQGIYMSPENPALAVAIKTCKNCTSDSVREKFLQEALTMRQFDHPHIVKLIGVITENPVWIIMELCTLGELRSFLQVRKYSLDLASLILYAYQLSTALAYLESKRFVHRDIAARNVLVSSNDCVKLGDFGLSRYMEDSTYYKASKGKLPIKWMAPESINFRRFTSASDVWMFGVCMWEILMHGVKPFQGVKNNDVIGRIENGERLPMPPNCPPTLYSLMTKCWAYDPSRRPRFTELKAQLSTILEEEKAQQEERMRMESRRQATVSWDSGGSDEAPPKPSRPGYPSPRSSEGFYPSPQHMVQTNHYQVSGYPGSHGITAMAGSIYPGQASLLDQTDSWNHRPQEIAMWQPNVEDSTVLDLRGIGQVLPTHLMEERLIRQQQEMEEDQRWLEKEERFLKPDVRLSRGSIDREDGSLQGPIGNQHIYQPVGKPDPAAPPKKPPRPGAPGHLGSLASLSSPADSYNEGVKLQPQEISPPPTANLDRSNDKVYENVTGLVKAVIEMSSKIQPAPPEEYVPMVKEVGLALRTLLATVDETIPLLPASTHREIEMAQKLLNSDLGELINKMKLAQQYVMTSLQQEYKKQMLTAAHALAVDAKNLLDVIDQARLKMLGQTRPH
Source text: as §1

[3] = target: 320 wild-type protein kinases (Homo sapiens, UniProt P15056); conditions: B-RAF, singlicate
320 wild-type protein kinases (Homo sapiens, UniProt P15056), sequence (P15056 whole entry): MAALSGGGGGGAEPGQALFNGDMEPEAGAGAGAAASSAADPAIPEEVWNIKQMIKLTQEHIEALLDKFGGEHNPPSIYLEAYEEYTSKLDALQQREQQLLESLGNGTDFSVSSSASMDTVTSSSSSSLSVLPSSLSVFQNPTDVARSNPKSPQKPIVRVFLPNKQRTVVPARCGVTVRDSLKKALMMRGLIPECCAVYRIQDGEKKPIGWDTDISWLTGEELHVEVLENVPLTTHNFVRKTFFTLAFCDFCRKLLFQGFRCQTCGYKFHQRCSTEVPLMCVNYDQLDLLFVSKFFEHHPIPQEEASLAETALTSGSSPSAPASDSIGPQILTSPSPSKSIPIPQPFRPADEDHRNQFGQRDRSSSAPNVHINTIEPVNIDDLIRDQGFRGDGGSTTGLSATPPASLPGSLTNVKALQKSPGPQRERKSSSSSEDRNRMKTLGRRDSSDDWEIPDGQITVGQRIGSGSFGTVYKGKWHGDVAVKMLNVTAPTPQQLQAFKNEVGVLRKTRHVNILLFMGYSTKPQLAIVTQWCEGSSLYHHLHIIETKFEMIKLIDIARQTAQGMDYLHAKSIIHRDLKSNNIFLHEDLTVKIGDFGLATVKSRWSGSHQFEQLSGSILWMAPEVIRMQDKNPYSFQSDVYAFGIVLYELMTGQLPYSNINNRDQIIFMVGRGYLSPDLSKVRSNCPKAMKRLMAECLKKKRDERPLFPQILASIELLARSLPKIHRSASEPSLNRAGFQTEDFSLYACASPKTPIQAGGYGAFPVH
Source text: as §1

[4] = target: 320 wild-type protein kinases (Homo sapiens, UniProt Q9P1W9); conditions: singlicate
320 wild-type protein kinases (Homo sapiens, UniProt Q9P1W9), sequence (Q9P1W9 whole entry): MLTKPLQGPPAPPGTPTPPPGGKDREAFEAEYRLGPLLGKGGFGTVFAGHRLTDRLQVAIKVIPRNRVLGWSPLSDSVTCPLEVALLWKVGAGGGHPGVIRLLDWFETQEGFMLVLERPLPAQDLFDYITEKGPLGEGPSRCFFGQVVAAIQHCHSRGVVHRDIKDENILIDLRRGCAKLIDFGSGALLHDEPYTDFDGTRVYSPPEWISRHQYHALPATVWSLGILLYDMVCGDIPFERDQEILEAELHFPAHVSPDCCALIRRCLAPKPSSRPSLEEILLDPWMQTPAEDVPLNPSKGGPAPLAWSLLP
Source text: as §1

[5] = target: 320 wild-type protein kinases (Homo sapiens, UniProt P06493); conditions: singlicate
320 wild-type protein kinases (Homo sapiens, UniProt P06493), sequence (P06493 whole entry): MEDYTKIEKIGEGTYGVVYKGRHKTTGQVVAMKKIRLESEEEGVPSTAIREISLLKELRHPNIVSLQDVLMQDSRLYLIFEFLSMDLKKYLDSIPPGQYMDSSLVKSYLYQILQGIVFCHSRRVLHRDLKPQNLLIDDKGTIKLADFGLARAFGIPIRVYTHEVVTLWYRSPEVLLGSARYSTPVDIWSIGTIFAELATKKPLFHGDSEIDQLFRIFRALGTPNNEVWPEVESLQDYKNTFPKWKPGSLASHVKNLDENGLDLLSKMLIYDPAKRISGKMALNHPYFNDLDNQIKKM
Source text: as §1

[6] = target: T1, 320 wild-type protein kinases (Homo sapiens, UniProt Q06418); conditions: kinase TYRO3, singlicate
T1 sequence (Q06418 41-890): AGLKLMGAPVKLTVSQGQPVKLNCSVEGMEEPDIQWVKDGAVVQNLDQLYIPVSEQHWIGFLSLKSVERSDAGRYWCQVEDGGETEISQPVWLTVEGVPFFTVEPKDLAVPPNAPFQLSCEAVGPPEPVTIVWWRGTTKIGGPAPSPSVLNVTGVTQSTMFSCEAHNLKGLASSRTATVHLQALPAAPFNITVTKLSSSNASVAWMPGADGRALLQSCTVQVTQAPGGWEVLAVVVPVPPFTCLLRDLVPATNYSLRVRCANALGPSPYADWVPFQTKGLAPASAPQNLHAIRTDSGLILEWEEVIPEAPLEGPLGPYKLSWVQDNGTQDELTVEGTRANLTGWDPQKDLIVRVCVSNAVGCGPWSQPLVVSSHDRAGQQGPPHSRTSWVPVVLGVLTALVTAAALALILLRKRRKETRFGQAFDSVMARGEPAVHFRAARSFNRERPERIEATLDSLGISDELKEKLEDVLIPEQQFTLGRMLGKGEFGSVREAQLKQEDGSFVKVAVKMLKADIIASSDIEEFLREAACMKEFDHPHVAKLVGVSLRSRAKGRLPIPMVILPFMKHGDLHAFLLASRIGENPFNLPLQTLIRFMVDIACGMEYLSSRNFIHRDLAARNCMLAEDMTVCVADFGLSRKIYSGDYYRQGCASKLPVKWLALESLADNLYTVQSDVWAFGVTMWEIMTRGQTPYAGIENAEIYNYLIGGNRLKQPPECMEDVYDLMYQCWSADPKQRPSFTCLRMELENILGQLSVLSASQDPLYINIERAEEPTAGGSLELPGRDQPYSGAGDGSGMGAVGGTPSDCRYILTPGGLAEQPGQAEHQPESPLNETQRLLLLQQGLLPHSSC
Source text: as §1

[7] = target: T2, 320 wild-type protein kinases (Homo sapiens, UniProt P15735); conditions: singlicate
T2 sequence (P15735 1-406): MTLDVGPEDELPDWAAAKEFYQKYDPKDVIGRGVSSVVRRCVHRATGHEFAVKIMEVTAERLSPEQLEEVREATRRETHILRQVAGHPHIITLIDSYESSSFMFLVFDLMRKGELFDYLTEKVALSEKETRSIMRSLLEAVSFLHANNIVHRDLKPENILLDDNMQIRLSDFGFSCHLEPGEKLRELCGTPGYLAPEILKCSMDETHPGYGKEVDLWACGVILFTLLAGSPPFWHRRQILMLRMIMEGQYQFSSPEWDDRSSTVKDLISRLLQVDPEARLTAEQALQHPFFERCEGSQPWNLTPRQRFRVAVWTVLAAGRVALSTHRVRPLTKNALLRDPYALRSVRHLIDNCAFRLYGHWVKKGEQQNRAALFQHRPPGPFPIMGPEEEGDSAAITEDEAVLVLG
Source text: as §1

[8] = target: 320 wild-type protein kinases (Homo sapiens, UniProt Q13153); conditions: singlicate
320 wild-type protein kinases (Homo sapiens, UniProt Q13153), sequence (Q13153 whole entry): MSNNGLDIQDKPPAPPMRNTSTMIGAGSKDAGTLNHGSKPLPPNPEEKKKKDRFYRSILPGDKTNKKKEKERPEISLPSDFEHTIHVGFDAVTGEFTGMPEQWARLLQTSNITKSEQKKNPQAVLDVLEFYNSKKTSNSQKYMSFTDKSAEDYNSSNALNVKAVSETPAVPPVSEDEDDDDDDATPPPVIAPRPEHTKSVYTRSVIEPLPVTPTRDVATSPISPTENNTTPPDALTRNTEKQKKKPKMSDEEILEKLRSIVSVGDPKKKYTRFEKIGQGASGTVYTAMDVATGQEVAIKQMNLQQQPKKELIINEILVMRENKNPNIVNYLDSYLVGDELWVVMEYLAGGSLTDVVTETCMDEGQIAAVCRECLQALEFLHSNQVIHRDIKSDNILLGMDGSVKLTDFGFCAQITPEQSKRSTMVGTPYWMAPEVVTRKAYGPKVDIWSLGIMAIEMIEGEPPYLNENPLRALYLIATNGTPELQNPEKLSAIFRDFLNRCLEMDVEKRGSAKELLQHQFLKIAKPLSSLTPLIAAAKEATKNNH
Source text: as §1

[9] = target: 320 wild-type protein kinases (Homo sapiens, UniProt P24941); conditions: singlicate
Source text: as §1

[10] = target: 320 wild-type protein kinases (Homo sapiens, UniProt P24723); conditions: PKC-eta, singlicate
320 wild-type protein kinases (Homo sapiens, UniProt P24723), sequence (P24723 whole entry): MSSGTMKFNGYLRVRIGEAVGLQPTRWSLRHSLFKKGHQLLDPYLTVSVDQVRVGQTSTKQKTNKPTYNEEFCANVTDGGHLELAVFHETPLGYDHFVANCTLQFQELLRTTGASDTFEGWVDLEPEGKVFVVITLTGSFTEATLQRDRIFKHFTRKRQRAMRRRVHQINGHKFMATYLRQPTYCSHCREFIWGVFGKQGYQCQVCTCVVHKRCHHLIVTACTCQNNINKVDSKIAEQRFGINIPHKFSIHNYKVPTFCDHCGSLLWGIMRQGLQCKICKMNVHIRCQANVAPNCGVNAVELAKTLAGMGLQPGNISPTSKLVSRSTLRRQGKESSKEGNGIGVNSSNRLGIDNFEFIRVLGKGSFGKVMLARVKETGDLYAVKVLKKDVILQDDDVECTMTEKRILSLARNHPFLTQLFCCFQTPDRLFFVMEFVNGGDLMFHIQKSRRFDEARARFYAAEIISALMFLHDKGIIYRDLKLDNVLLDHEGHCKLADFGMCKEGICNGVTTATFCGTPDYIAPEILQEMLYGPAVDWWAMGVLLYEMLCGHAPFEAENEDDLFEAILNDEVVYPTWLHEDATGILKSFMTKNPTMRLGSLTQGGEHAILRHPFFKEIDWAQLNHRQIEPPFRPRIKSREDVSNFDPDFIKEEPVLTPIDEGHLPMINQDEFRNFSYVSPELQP
Source text: as §1

[11] = target: T3, 320 wild-type protein kinases (Homo sapiens, UniProt Q96KB5); conditions: PBK, singlicate
T3 sequence (Q96KB5 1-322): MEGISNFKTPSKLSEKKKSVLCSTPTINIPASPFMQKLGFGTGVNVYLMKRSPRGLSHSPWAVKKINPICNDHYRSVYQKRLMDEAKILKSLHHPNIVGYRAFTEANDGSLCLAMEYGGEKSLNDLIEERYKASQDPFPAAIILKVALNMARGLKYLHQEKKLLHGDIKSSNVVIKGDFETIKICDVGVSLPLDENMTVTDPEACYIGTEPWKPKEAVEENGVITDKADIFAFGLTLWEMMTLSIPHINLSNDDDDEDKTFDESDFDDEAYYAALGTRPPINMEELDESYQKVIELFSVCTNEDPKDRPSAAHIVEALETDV
Source text: as §1

[12] = target: 320 wild-type protein kinases (Homo sapiens, UniProt P49840); conditions: GSK3-alpha, singlicate
320 wild-type protein kinases (Homo sapiens, UniProt P49840), sequence (P49840 whole entry): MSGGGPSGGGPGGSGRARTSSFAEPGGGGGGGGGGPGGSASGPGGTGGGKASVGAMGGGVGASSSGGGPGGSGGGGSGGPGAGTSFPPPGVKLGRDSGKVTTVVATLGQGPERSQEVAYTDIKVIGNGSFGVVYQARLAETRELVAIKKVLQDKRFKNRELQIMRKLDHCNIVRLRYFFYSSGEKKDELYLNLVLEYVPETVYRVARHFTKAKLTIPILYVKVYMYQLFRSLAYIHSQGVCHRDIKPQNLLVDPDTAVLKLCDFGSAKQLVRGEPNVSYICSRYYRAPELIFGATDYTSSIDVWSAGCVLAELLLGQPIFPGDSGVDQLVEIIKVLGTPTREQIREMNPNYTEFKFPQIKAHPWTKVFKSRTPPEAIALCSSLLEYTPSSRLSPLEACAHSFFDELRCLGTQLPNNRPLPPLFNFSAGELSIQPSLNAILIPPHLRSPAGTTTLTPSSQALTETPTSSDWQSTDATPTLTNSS
Source text: as §1

320 wild-type protein kinases (Homo sapiens, UniProt Q9NYY3), sequence (Q9NYY3 whole entry): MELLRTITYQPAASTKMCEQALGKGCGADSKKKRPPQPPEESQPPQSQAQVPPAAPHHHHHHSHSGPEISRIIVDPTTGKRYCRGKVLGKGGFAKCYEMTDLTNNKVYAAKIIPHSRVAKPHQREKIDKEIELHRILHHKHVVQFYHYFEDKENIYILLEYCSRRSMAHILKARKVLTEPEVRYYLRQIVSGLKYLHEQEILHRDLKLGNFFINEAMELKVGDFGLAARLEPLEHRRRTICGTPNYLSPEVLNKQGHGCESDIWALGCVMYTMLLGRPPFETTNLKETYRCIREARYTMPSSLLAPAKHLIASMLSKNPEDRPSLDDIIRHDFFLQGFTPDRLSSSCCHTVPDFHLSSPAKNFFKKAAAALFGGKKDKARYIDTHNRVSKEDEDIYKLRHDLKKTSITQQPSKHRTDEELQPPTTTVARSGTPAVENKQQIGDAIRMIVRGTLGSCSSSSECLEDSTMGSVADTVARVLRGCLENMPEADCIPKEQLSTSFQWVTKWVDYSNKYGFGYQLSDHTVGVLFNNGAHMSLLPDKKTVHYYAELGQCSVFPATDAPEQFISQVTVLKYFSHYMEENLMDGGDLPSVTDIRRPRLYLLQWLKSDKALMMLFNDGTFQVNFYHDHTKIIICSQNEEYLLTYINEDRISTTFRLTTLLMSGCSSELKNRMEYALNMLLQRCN

Structure (SMILES) | Residual activity, SNK ([1]; assay conc. 1.0E-06 M) | Residual activity, SNK ([1]; assay conc. 1.0E-07 M) | Residual activity ([2]; FAK aa2-1052, 1.0E-06 M) | Residual activity ([2]; FAK aa2-1052, 1.0E-07 M) | Residual activity ([3]; 1.0E-06 M) | Residual activity ([3]; 1.0E-07 M) | Residual activity ([4]; PIM2, 1.0E-06 M) | Residual activity ([4]; PIM2, 1.0E-07 M) | Residual activity ([5]; CDK1/CycA2, 1.0E-06 M) | Residual activity ([5]; CDK1/CycA2, 1.0E-07 M) | Residual activity ([5]; CDK1/CycB1, 1.0E-06 M) | Residual activity ([5]; CDK1/CycB1, 1.0E-07 M) | Residual activity ([5]; CDK1/CycE1, 1.0E-06 M) | Residual activity ([5]; CDK1/CycE1, 1.0E-07 M) | Residual activity, TYRO3 ([6]; assay conc. 1.0E-06 M) | Residual activity, TYRO3 ([6]; assay conc. 1.0E-07 M) | Residual activity ([7]; PHKG2, 1.0E-06 M) | Residual activity ([7]; PHKG2, 1.0E-07 M) | Residual activity ([8]; PAK1, 1.0E-06 M) | Residual activity ([8]; PAK1, 1.0E-07 M) | other results
C#Cc1cc(Nc2ncnc3cc(OC)c(OC)cc23)ccc1Cl [Compound 45] | 87 % of control | 99 % of control | 95 % of control | 109 % of control | 108 % of control | 112 % of control | 100 % of control | 89 % of control | 83 % of control | 83 % of control | 78 % of control | 89 % of control | 91 % of control | 97 % of control | 58 % of control | 93 % of control | 103 % of control | 95 % of control | 95 % of control | 91 % of control | Residual activity ([9]; CDK2/CycA2, 1.0E-06 M): 97 % of control; Residual activity ([9]; CDK2/CycA2, 1.0E-07 M): 95 % of control; Residual activity ([9]; CDK2/CycE1, 1.0E-06 M): 86 % of control; Residual activity ([9]; CDK2/CycE1, 1.0E-07 M): 91 % of control; Residual activity ([10]; 1.0E-06 M): 75 % of control; Residual activity ([10]; 1.0E-07 M): 90 % of control; Residual activity ([11]; 1.0E-06 M): 80 % of control; Residual activity ([11]; 1.0E-07 M): 91 % of control; Residual activity ([12]; 1.0E-06 M): 122 % of control; Residual activity ([12]; 1.0E-07 M): 136 % of control
C#Cc1cc(Nc2ncnc3cc(I)ccc23)ccc1Cl [Compound 41] | 89 % of control | 97 % of control | 106 % of control | 138 % of control | 115 % of control | 145 % of control | 101 % of control | 112 % of control | 77 % of control | 91 % of control | 79 % of control | 84 % of control | 101 % of control | 116 % of control | 91 % of control | 100 % of control | 98 % of control | 94 % of control | 92 % of control | 87 % of control | Residual activity ([9]; CDK2/CycA2, 1.0E-06 M): 90 % of control; Residual activity ([9]; CDK2/CycA2, 1.0E-07 M): 88 % of control; Residual activity ([9]; CDK2/CycE1, 1.0E-06 M): 76 % of control; Residual activity ([9]; CDK2/CycE1, 1.0E-07 M): 97 % of control; Residual activity ([10]; 1.0E-06 M): 91 % of control; Residual activity ([10]; 1.0E-07 M): 93 % of control; Residual activity ([11]; 1.0E-06 M): 110 % of control; Residual activity ([11]; 1.0E-07 M): 98 % of control; Residual activity ([12]; 1.0E-06 M): 143 % of control; Residual activity ([12]; 1.0E-07 M): 148 % of control
